Experimental data: PubChem BioAssay AID248 (DTP/NCI, 2004)
Values joined by “and” are separate entries in the source; they are usually repeats but may differ in a detail not shown here. Equal values may be shown once. Inconclusive results and toxic doses are left out.

Tested on: L1210 leukemia ip in BDF1 mice, survival T/C
Assay: NCI In Vivo Anticancer Drug Screen. Data for tumor model L1210 Leukemia (intraperitoneal) in B6D2F1 (BDF1) mice
Conditions: endpoint: mean survival time, higher = longer survival
Outline: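 Read-out is survival time, reported as the treated-group measurement over the vehicle-control measurement.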

[1] = dose: 200.0 mg/kg/injection, schedule: Q01DX Z (ip), vehicle: carboxymethylcellulose (CMC)
[2] = dose: 400.0 mg/kg/injection, schedule: Q01DX Z (ip), vehicle: carboxymethylcellulose (CMC)
[3] = dose: 100.0 mg/kg/injection, schedule: Q01DX009 (ip), vehicle: Klucel (hydroxypropylcellulose) (HPC)
[4] = dose: 100.0 mg/kg/injection, schedule: Q04DX003 (ip), vehicle: saline with Tween-80
[5] = dose: 200.0 mg/kg/injection, schedule: Q01DX009 (ip), vehicle: Klucel (hydroxypropylcellulose) (HPC)
[6] = dose: 100.0 mg/kg/injection, schedule: Q01DX009 (ip), vehicle: saline
[7] = dose: 100.0 mg/kg/injection, schedule: Q04DX003 (ip), vehicle: saline
[8] = dose: 200.0 mg/kg/injection, schedule: Q01DX009 (ip), vehicle: saline
[9] = dose: 200.0 mg/kg/injection, schedule: Q04DX003 (ip), vehicle: saline
[10] = dose: 400.0 mg/kg/injection, schedule: Q04DX003 (ip), vehicle: saline
[11] = dose: 400.0 mg/kg/injection, schedule: Q01DX009 (ip), vehicle: saline
[12] = dose: 100.0 mg/kg/injection, schedule: Q01DX009 (ip), vehicle: saline with Tween-80
[13] = dose: 200.0 mg/kg/injection, schedule: Q01DX009 (ip), vehicle: saline with Tween-80
[14] = dose: 200.0 mg/kg/injection, schedule: Q04DX003 (ip), vehicle: saline with Tween-80
[15] = dose: 400.0 mg/kg/injection, schedule: Q01DX009 (ip), vehicle: saline with Tween-80
[16] = dose: 400.0 mg/kg/injection, schedule: Q04DX003 (ip), vehicle: saline with Tween-80
[17] = dose: 100.0 mg/kg/injection, schedule: Q04DX003 (ip), vehicle: Klucel (hydroxypropylcellulose) (HPC)
[18] = dose: 200.0 mg/kg/injection, schedule: Q04DX003 (ip), vehicle: Klucel (hydroxypropylcellulose) (HPC)
[19] = dose: 400.0 mg/kg/injection, schedule: Q01DX009 (ip), vehicle: Klucel (hydroxypropylcellulose) (HPC)
[20] = dose: 400.0 mg/kg/injection, schedule: Q04DX003 (ip), vehicle: Klucel (hydroxypropylcellulose) (HPC)

In the case of COc1ccccc1NC(=O)CSC(N)=O, the T/C (dose: 75.0 mg/kg/injection, schedule: Q## X000 (ip), vehicle: carboxymethylcellulose (CMC)) is reported as 100 % of control, the T/C (dose: 125.0 mg/kg/injection, schedule: Q## X000 (ip), vehicle: carboxymethylcellulose (CMC)) is reported as 105 % of control and the T/C (dose: 175.0 mg/kg/injection, schedule: Q## X000 (ip), vehicle: carboxymethylcellulose (CMC)) is reported as 100 % of control. The T/C [1] was 104 % of control and the T/C [2] was 105 % of control.

For Clc1sc2ccccc2c1Cl, the T/C (dose: 50.0 mg/kg/injection, schedule: Q01DX009 (ip), vehicle: Klucel (hydroxypropylcellulose) (HPC)) was 103 % of control and the T/C [3] was 95 % of control.

For O=C(/C=N/O)c1cccnc1, the T/C [4] was 97 % of control.

Clc1ccc(C[P+](c2ccccc2)(c2ccccc2)c2ccccc2)cc1Cl was tested, and the T/C (dose: 0.62 mg/kg/injection, schedule: Q01DX009 (ip), vehicle: acetone) was 98 % of control, the T/C (dose: 1.25 mg/kg/injection, schedule: Q01DX009 (ip), vehicle: acetone) was 101 % of control and the T/C (dose: 2.5 mg/kg/injection, schedule: Q01DX009 (ip), vehicle: acetone) was 101 % of control. For the same molecule, the T/C (dose: 2.5 mg/kg/injection, schedule: Q04DX003 (ip), vehicle: acetone) was 94 % of control, the T/C (dose: 3.6 mg/kg/injection, schedule: Q01DX009 (ip), vehicle: saline with Tween-80) was 97 % of control and the T/C (dose: 5.0 mg/kg/injection, schedule: Q01DX001 (ip), vehicle: acetone) was 90 % of control. For the same molecule, the T/C (dose: 5.6 mg/kg/injection, schedule: Q01DX009 (ip), vehicle: saline with Tween-80) was 106 % of control, the T/C (dose: 8.4 mg/kg/injection, schedule: Q01DX009 (ip), vehicle: saline with Tween-80) was 102 % of control and the T/C (dose: 10.0 mg/kg/injection, schedule: Q01DX001 (ip), vehicle: acetone) was 97 % of control.

In the case of C/C=C/C(=O)Nc1ccccc1F, the T/C [3] is reported as 93 % of control and the T/C [5] is reported as 103 % of control.

In the case of O=C1N(C[P+](c2ccccc2)(c2ccccc2)c2ccccc2)CCCN1C[P+](c1ccccc1)(c1ccccc1)c1ccccc1, the T/C (dose: 1.56 mg/kg/injection, schedule: Q01DX009 (ip), vehicle: saline) is reported as 96 % of control, the T/C (dose: 1.56 mg/kg/injection, schedule: Q04DX002 (ip), vehicle: saline) is reported as 150 % of control and the T/C (dose: 3.12 mg/kg/injection, schedule: Q01DX005 (ip), vehicle: saline) is reported as 100 % of control. For the same molecule, the T/C (dose: 3.12 mg/kg/injection, schedule: Q01DX009 (ip), vehicle: saline) was 93 % of control, the T/C (dose: 3.12 mg/kg/injection, schedule: Q04DX002 (ip), vehicle: saline) was 88 % of control and the T/C (dose: 6.25 mg/kg/injection, schedule: Q01DX005 (ip), vehicle: saline) was 94 % of control. For the same molecule, the T/C (dose: 6.25 mg/kg/injection, schedule: Q01DX009 (ip), vehicle: saline) was 86 % of control and the T/C (dose: 6.25 mg/kg/injection, schedule: Q04DX002 (ip), vehicle: saline) was 95 % of control.

With C=C(NC(=O)COc1ccccc1)C(=O)O the T/C [6] was 103 % of control, the T/C [7] was 116 % of control and the T/C [8] was 90 % of control. For the same molecule, the T/C [9] was 97 % of control and the T/C [10] was 100 % of control.

With c1ccc(CSn2cnc3nc4ccccc4c-3c2)cc1 the T/C (dose: 100.0 mg/kg/injection, schedule: Q04DX003 (ip), vehicle: gum acacia) was 91 % of control, the T/C (dose: 200.0 mg/kg/injection, schedule: Q04DX003 (ip), vehicle: gum acacia) was 91 % of control and the T/C (dose: 400.0 mg/kg/injection, schedule: Q04DX003 (ip), vehicle: gum acacia) was 91 % of control.

With C1COC(COCC2CO2)C1 (centres undefined) the T/C [6] was 100 % of control, the T/C (dose: 100.0 mg/kg/injection, schedule: Q04DX002 (ip), vehicle: saline) was 98 % of control and 100 % of control and 120 % of control and the T/C [7] was 99 % of control. For the same molecule, the T/C [8] was 92 % of control, the T/C (dose: 200.0 mg/kg/injection, schedule: Q04DX002 (ip), vehicle: saline) was 103 % of control and 109 % of control and 111 % of control and the T/C [9] was 98 % of control. For the same molecule, the T/C [11] was 93 % of control, the T/C (dose: 400.0 mg/kg/injection, schedule: Q04DX002 (ip), vehicle: saline) was 98 % of control and 102 % of control (2×) and the T/C [10] was 105 % of control.

C#CCNC(=O)NCCCl was tested, and the T/C [12] was 97 % of control, the T/C [4] was 101 % of control and the T/C [13] was 99 % of control. The T/C [14] was 104 % of control, the T/C [15] was 97 % of control and the T/C [16] was 101 % of control.

In the case of CCC/C(=N\NC(=O)c1ccccc1OC)c1ccccc1, the T/C (dose: 50.0 mg/kg/injection, schedule: Q01DX009 (ip), vehicle: saline with Tween-80) is reported as 105 % of control, the T/C [12] is reported as 97 % of control and the T/C [13] is reported as 105 % of control.

For COC(CCCl)c1ccccc1 (centres undefined), the T/C [12] was 101 % of control, the T/C [4] was 100 % of control and the T/C [13] was 100 % of control. The T/C [14] was 96 % of control and the T/C [16] was 91 % of control.

O=C1/C(=C\c2ccccn2)c2ccccc2N1Cl was tested, and the T/C (dose: 100.0 mg/kg/injection, schedule: Q01DX001 (ip), vehicle: other) was 94 % of control, the T/C (dose: 200.0 mg/kg/injection, schedule: Q01DX001 (ip), vehicle: other) was 92 % of control and the T/C (dose: 400.0 mg/kg/injection, schedule: Q01DX001 (ip), vehicle: other) was 94 % of control.

In the case of CCC1C/C(=C\NC(N)=O)C(=O)O1 (centres undefined), the T/C [12] is reported as 96 % of control, the T/C [4] is reported as 96 % of control and the T/C [13] is reported as 100 % of control. The T/C [14] was 104 % of control, the T/C [15] was 100 % of control and the T/C [16] was 101 % of control.

For CSc1ccc(OC(=O)NC2CCCCC2)cc1, the T/C [3] was 98 % of control, the T/C [17] was 98 % of control and the T/C [5] was 101 % of control. The T/C [18] was 101 % of control, the T/C [19] was 116 % of control and the T/C [20] was 101 % of control.

For C(=N\Nc1nc2ccccc2s1)/c1cccnc1, the T/C [3] was 98 % of control, the T/C [5] was 98 % of control and the T/C [19] was 101 % of control.

For CCN(CC)CCSC(=O)C(O)(c1ccccc1)C1CCCCC1 (centres undefined), the T/C (dose: 75.0 mg/kg/injection, schedule: Q01DX001 (ip), vehicle: other) was 100 % of control.

With COc1ccc(NC(=O)Nc2cc(Cl)ccc2OC)c(Cl)c1 the T/C [6] was 100 % of control, the T/C [7] was 104 % of control and the T/C [8] was 93 % of control. The T/C [9] was 98 % of control, the T/C [11] was 88 % of control and the T/C [10] was 101 % of control.

In the case of Cc1ccccc1N=Nc1ccc(N(C)C)cc1, the T/C (dose: 50.0 mg/kg/injection, schedule: Q01DX001 (ip), vehicle: carboxymethylcellulose (CMC)) is reported as 93 % of control, the T/C (dose: 100.0 mg/kg/injection, schedule: Q01DX001 (ip), vehicle: carboxymethylcellulose (CMC)) is reported as 107 % of control and the T/C [17] is reported as 95 % of control. The T/C (dose: 200.0 mg/kg/injection, schedule: Q01DX001 (ip), vehicle: carboxymethylcellulose (CMC)) was 86 % of control, the T/C [18] was 95 % of control and the T/C (dose: 400.0 mg/kg/injection, schedule: Q01DX001 (ip), vehicle: carboxymethylcellulose (CMC)) was 98 % of control. The T/C [20] was 91 % of control.

In the case of O=C(OC/C(=C\Cl)OC(=O)c1ccc([N+](=O)[O-])cc1)c1ccc([N+](=O)[O-])cc1, the T/C [3] is reported as 100 % of control, the T/C [5] is reported as 105 % of control and the T/C [19] is reported as 100 % of control.

For O=C(O)C1CC(c2ccccc2)=C(c2ccccc2)CC1C(=O)O (centres undefined), the T/C (dose: 50.0 mg/kg/injection, schedule: Q04DX002 (ip), vehicle: Klucel (hydroxypropylcellulose) (HPC)) was 105 % of control, the T/C (dose: 100.0 mg/kg/injection, schedule: Q04DX002 (ip), vehicle: Klucel (hydroxypropylcellulose) (HPC)) was 102 % of control and 114 % of control and 100 % of control and the T/C (dose: 200.0 mg/kg/injection, schedule: Q04DX002 (ip), vehicle: Klucel (hydroxypropylcellulose) (HPC)) was 102 % of control and 100 % of control.

For Cc1ccc(Nc2n[nH]c(=S)s2)c(C)c1, the T/C (dose: 100.0 mg/kg/injection, schedule: Q04DX002 (ip), vehicle: gum acacia) was 96 % of control, the T/C (dose: 200.0 mg/kg/injection, schedule: Q04DX002 (ip), vehicle: gum acacia) was 96 % of control and the T/C (dose: 400.0 mg/kg/injection, schedule: Q04DX002 (ip), vehicle: gum acacia) was 111 % of control.

NC(=O)n1cccn1 was tested, and the T/C (dose: 25.0 mg/kg/injection, schedule: Q01DX Z (ip), vehicle: carboxymethylcellulose (CMC)) was 100 % of control, the T/C (dose: 50.0 mg/kg/injection, schedule: Q01DX Z (ip), vehicle: carboxymethylcellulose (CMC)) was 102 % of control and the T/C (dose: 100.0 mg/kg/injection, schedule: Q01DX Z (ip), vehicle: carboxymethylcellulose (CMC)) was 102 % of control. For the same molecule, the T/C [1] was 100 % of control and 109 % of control and the T/C [2] was 102 % of control.
